Tests used:
[1] = Compound stability in human liver microsomes; type: in vitro ADME; conditions: for half-life at 5 μM: human liver microsomes 0.5 mg protein/mL, compound 5 μM, NADPH 1.0 mM, pH 7.4, 37° C., read-out: Human T1/2; for CLint scaled at 5 μM: liver microsomes, pH 7.4, in vivo CLint extrapolated from human liver microsome incubation
Procedure: (§1) Human or rat liver microsomes incubations were conducted in duplicate in polypropylene tubes. The typical incubation mixtures consisted of human or rat liver microsomes (0.5 mg protein/mL), compounds of interest (5 μM) and NADPH (1.0 mM) in a total volume of 200 μL potassium phosphate buffer (PBS, 100 mM, pH 7.4). Compounds were dissolved in DMSO and diluted with PBS such that the final concentration of DMSO was 0.05%. The enzymatic reactions were commenced with the addition of protein after a 3-min preincubation and incubated in a water bath open to the air at 37° C. Reactions were terminated at various time points (0, 5, 10, 15, 30, 60 min) by adding equal volume of ice-cold acetonitrile. The samples were stored at −80° C. until LC/MS/MS assays.
(§2) The concentrations of compounds in the incubation mixtures of human or rat liver microsomes were determined by a LC/MS/MS method. The ranges of the linearity in the concentration range were determined for each tested compounds.
(§3) A parallel incubation was performed using denatured microsomes as the negative control, and reactions were terminated at various time points (0, 15, 60 min) after incubation at 37° C.
(§4) Dextromethorphan (70 μM) was selected as the positive control, and reactions were terminated at various time points (0, 5, 10, 15, 30, 60 min) after incubation at 37° C. Both positive and negative control samples were included in each assay to ensure the integrity of the microsomal incubation system.
(§5) The concentrations of compounds in human or rat liver microsome incubations were plotted as a percentage of the relevant zero time point control for each reaction. The in vivo CLint were extrapolated (ref.: Naritomi, Y.; Terashita, S.; Kimura, S.; Suzuki, A.; Kagayama, A.; and Sugiyama, Y.; Prediction of human hepatic clearance from in vivo animal experiments and in vitro metabolic studies with liver microsomes from animals and humans. Drug Metab. Dispos., 2001, 29: 1316-1324).

PI3K (p110α/p85α) (h) = target: T1, PI3K (p110α/p85α) (h) (Homo sapiens, UniProt P42336); experiment: PI3K (p110α/p85α) (h) non-radioactive HTRF kinase assay; type: biochemical; conditions: Kinase inhibition data; performed at Millipore UK Ltd
T1 construct: purchased Millipore UK Ltd
T1 sequence (P42336 whole entry): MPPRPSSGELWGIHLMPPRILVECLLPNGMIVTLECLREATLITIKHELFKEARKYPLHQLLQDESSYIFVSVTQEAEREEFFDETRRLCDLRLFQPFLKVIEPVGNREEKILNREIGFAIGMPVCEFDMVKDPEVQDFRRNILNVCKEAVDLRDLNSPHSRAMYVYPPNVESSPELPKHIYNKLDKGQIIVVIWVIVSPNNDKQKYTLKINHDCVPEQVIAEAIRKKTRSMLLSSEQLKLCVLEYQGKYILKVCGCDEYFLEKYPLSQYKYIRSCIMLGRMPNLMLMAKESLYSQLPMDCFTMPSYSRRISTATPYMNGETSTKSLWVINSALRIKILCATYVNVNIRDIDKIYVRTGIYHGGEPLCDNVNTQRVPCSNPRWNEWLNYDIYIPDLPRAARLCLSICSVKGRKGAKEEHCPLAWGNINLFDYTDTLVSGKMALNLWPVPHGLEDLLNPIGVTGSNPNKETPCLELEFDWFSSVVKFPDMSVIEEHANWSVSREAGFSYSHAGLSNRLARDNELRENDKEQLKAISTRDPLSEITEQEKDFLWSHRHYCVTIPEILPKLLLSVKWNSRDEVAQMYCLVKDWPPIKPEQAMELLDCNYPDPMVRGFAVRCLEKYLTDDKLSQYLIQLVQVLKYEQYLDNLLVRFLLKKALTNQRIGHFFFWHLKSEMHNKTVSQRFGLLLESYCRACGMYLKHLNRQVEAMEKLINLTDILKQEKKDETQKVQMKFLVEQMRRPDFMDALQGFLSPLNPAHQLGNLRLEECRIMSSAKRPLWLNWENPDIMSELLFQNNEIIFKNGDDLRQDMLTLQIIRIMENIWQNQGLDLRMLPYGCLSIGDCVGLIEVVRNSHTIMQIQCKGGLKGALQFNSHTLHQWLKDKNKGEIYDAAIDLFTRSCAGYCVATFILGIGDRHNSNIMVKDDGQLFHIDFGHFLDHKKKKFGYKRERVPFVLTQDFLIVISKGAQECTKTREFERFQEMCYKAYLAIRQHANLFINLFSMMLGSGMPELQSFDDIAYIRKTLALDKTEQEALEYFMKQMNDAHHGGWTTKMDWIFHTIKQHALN
T1 sequence (P27986 whole entry partner): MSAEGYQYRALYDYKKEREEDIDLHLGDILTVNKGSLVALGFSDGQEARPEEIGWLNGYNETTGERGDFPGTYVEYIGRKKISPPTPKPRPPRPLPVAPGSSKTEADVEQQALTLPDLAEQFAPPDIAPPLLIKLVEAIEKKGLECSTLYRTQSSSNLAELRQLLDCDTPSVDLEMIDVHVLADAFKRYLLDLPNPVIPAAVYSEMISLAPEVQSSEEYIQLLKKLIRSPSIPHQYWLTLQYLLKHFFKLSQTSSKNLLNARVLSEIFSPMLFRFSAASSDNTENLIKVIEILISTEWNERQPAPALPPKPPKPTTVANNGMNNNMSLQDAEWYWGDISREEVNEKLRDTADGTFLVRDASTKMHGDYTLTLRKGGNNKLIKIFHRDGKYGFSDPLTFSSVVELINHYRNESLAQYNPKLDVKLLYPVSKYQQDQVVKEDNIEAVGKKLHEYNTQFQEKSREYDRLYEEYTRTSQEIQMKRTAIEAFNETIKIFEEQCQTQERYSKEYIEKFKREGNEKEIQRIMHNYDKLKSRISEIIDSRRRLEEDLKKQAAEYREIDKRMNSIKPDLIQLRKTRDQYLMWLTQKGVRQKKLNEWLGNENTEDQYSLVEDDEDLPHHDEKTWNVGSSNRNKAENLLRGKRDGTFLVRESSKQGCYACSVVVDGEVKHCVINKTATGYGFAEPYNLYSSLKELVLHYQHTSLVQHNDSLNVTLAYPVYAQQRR
Procedure: (§6) The above assay procedure can be used to determine the IC50 for inhibition and/or the inhibition constant, Ki.
PI3K (p110α/p85α) (h) [Non-Radioactive Assay]
(§7) PI3K (p110α/p85α) (h) is incubated in assay buffer containing 10 μM phosphatidylinositol 4,5-bisphosphate and MgATP (concentration as required). The reaction is initiated by the addition of the ATP solution. After incubation for 30 minutes at room temperature, the reaction is stopped by the addition of stop solution containing EDTA and biotinylated phosphatidylinositol-3,4,5-trisphosphate. Finally, detection buffer is added, which contains europium-labelled anti-GST monoclonal antibody, GST-tagged GRP1 PH domain and streptavidin allophycocyanin. The plate is then read in timeresolved fluorescence mode and the homogenous time-resolved fluorescence (HTRF) signal is determined according to the formula HTRF=10000×(Em665 nm/Em620 nm).
(§8) The kinase assays described herein were performed at Millipore UK Ltd, Dundee Technology Park, Dundee DD2 1SW, UK.

[2] = Pharmacokinetics after intravenous and oral administration in rats; type: in vivo; conditions: for CL/F / bioavailability: Rats; for CL/F: iv dosing, dose 1 mg/kg (0.5 for Ex. 1, 10, 11, 35; 0.48 for Ex. 24); for AUC(0-t) / half-life / Vd / bioavailability: rat, plasma; for AUC(0-t) / half-life / Vd: iv, 1 mg/kg; for Vd: read-out: Vss; for bioavailability: oral (p.o.) generally 5 or 10 mg/kg versus iv dosing
Summary of the method: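 Dosing used solution, suspension or capsule formulations: 1 or 2 mg/kg IV in all species; PO 5 or 10 mg/kg in mice and rats, 10 mg/kg in dogs and monkeys. Plasma sampled from 0.083 or 0.25 h up to 24 h post-dose; concentrations determined by LC/MS/MS in MRM mode.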

PI3K (p110δ/p85α) (h) = target: T2, PI3K (p110δ/p85α) (h) (Homo sapiens, UniProt O00329); experiment: PI3K (p110δ/p85α) (h) non-radioactive HTRF kinase assay; type: biochemical; conditions: Kinase inhibition data; performed at Millipore UK Ltd
T2 construct: purchased Millipore UK Ltd
T2 sequence (O00329 whole entry): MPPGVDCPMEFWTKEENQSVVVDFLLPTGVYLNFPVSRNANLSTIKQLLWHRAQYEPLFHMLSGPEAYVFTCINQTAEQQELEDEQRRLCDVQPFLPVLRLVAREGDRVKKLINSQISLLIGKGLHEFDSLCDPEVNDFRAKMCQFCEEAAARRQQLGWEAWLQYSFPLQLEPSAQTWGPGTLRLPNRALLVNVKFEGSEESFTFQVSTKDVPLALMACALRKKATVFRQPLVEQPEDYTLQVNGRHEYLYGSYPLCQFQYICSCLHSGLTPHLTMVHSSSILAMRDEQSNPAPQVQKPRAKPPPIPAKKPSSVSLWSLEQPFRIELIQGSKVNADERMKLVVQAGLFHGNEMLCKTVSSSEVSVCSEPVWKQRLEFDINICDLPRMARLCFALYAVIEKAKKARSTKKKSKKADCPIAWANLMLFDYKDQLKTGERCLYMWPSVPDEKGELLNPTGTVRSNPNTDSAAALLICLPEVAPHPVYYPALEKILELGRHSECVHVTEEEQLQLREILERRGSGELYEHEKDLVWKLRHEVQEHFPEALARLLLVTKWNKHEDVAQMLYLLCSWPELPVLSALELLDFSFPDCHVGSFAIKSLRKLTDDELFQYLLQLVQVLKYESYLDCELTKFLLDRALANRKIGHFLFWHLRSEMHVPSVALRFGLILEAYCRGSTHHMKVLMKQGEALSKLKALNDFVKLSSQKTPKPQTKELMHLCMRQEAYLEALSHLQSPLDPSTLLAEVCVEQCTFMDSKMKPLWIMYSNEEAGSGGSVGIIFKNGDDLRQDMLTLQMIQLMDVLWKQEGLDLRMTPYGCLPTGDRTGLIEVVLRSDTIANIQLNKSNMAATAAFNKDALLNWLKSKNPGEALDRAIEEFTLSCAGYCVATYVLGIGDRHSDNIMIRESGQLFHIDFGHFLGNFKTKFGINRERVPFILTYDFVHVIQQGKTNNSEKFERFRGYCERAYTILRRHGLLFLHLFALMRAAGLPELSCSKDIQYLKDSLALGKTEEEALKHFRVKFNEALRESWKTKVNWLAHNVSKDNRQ
T2 sequence (P27986 whole entry partner): as the sequence (P27986 whole entry partner) above
Procedure: as §6
PI3K (p110δ/p85α) (h) [Non-Radioactive Assay]
as §7, with “(p110δ/p85α)” for “(p110α/p85α)”, “phosphatidylinositol-4, 5-bisphosphate” for “phosphatidylinositol 4,5-bisphosphate”, “MgATP mix.” for “ATP solution.”, “streptavidin-allophycocyanin.” for “streptavidin allophycocyanin.”
as §8

[3] = Compound stability in rat liver microsomes; type: in vitro ADME; conditions: for CLint scaled at 5 μM: liver microsomes, pH 7.4, in vivo CLint extrapolated from rat liver microsome incubation; for half-life at 5 μM: rat liver microsomes 0.5 mg protein/mL, compound 5 μM, NADPH 1.0 mM, pH 7.4, 37° C., read-out: Rat T1/2
Procedure: as §1, §2, §3, §4, §5

PI3K (p120γ) (h) = target: T3, PI3K (p120γ) (h) (Homo sapiens, UniProt P48736); experiment: PI3K (p120γ) (h) non-radioactive HTRF kinase assay; type: biochemical; conditions: Kinase inhibition data; performed at Millipore UK Ltd
T3 construct: purchased Millipore UK Ltd
T3 sequence (P48736 whole entry): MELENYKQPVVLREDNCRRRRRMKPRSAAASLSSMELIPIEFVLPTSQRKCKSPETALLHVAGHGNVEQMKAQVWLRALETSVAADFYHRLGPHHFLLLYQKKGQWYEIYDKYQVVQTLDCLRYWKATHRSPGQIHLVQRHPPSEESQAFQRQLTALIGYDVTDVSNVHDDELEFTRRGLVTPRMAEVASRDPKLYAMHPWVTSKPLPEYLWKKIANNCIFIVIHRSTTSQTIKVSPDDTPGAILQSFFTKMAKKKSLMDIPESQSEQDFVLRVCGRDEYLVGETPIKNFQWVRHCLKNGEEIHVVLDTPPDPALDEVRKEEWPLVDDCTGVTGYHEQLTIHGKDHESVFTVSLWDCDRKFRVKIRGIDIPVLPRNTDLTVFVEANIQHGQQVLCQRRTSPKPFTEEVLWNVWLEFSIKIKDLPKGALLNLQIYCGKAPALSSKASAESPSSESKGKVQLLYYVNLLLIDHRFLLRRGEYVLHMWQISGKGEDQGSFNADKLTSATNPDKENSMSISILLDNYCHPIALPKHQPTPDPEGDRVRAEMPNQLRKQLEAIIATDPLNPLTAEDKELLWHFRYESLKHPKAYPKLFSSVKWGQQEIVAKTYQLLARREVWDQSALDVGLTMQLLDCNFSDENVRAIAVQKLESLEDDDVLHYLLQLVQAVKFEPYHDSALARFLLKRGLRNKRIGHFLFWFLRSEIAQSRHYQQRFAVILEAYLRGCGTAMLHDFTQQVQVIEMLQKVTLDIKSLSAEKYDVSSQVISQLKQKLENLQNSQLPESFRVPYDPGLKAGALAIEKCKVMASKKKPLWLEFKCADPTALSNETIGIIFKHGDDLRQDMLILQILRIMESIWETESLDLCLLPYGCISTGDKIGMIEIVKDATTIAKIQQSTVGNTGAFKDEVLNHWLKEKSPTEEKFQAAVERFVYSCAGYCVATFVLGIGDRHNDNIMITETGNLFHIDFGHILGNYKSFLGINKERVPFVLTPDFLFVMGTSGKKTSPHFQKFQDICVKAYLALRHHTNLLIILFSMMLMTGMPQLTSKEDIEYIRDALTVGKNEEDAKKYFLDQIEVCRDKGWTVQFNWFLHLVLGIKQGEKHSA
Procedure: as §6
PI3K (p120γ) (h) [Non-Radioactive Assay]
as §7, with “(p120γ)” for “(p110α/p85α)”, “M phosphatidylinositol-4, 5-bisphosphate” for “μM phosphatidylinositol 4,5-bisphosphate”, “MgATP mix.” for “ATP solution.”, “streptavidin-allophycocyanin.” for “streptavidin allophycocyanin.”
as §8

PI3K (h) p110β/p85α = target: T4, PI3K (h) p110β/p85α (Homo sapiens, UniProt P42338); experiment: PI3K (p110β/p85α) (h) non-radioactive HTRF kinase assay; type: biochemical; conditions: Kinase inhibition data; performed at Millipore UK Ltd
T4 construct: purchased Millipore UK Ltd
T4 sequence (P42338 whole entry): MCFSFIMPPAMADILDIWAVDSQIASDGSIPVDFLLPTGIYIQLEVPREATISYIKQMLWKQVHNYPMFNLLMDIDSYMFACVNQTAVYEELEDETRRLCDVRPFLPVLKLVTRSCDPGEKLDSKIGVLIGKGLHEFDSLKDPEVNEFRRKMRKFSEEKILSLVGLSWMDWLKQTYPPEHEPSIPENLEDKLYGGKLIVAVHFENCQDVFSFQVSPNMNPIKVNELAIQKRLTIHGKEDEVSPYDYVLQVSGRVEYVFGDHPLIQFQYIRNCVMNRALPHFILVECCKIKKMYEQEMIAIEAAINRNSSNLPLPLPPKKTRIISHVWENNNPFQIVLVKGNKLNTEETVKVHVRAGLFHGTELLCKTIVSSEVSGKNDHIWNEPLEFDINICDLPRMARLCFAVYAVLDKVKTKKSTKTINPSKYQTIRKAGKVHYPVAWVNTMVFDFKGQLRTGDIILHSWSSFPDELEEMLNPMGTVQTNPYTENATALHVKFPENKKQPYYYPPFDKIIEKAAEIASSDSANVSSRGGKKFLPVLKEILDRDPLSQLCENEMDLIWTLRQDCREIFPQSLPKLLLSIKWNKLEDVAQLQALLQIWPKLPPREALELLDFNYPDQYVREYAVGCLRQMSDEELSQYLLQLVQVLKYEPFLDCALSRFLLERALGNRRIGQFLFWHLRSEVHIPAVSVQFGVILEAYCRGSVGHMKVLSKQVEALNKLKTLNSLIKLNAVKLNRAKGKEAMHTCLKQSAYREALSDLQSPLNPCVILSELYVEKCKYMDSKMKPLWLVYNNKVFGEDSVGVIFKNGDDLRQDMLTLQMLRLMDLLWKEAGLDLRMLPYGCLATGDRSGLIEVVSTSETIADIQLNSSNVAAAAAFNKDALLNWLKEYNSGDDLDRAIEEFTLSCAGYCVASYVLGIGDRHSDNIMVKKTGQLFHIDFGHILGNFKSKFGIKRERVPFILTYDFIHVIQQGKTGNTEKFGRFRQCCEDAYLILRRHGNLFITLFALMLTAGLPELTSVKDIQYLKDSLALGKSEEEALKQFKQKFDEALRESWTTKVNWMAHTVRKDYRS
T4 sequence (P27986 whole entry partner): as the sequence (P27986 whole entry partner) above

Row | Structure (SMILES) | half-life at 5 μM [1] [min] | CLint scaled at 5 μM [1] [mL/min/kg] | IC50 (PI3K (p110α/p85α) (h)) [nM] | CL/F [2] [L/h/kg] | AUC(0-t) [2] [ng·h/mL] | half-life [2] [min] | Vd [2] [L/kg] | bioavailability [2] [%] | IC50 (PI3K (p110δ/p85α) (h)) [nM] | CLint scaled at 5 μM [3] [mL/min/kg] | half-life at 5 μM [3] [min] | IC50 (PI3K (p120γ) (h)) [nM] | IC50 (PI3K (h) p110β/p85α) [nM]
1 | Cc1noc(-c2c(N)ncnc2N[C@@H](C)c2nc3cccc(-c4cnn(C)c4)c3c(=O)n2C2CC2)n1 [Ex. 66, (S)-2-(1-((6-amino-5-(3-methyl-1,2,4-oxadiazol-5-yl)pyrimidin-4-yl)amino)ethyl)-3-cyclopropyl-5-(1-methyl-1H-pyrazol-4-yl)quinazolin-4(3H)-one] | 66.4 | 26.2 | 2180 | 2.36 | 423 | 58.8 | 2.98 | 96.2 | 16 | 15.2 | 164 | 878 | 1800
2 | Cc1nnc(-c2c(N)ncnc2N[C@@H](C)c2nc3cccc(-c4cnn(C)c4)c3c(=O)n2-c2ccccc2)o1 [Ex. 69, (S)-2-(1-((6-amino-5-(5-methyl-1,3,4-oxadiazol-2-yl)pyrimidin-4-yl)amino)ethyl)-5-(1-methyl-1H-pyrazol-4-yl)-3-phenylquinazolin-4(3H)-one] | 138 | 12.6 | > 3000 | 0.90 | 1100 | 75 | 1.54 | 83 | 22 | 9.99 | 249 | 1170 | > 3000
3 | Cc1noc(-c2c(N)ncnc2N[C@@H](C)c2nc3cccc(-c4cnn(C)c4)c3c(=O)n2-c2ccccc2)n1 [Ex. 68, (S)-2-(1-((6-amino-5-(3-methyl-1,2,4-oxadiazol-5-yl)pyrimidin-4-yl)amino)ethyl)-5-(1-methyl-1H-pyrazol-4-yl)-3-phenylquinazolin-4(3H)-one] | 73 | 23.8 | 1420 | 0.35 | 2690 | 108 | 0.89 | 70 | 4 | 17.6 | 141 | 92 | 1180

Reference: patent publication US9518046B2 (Calitor Sciences, LLC, priority 2015, dated 2016)
